Article PMC8283790, “Inhibitory Effect of Puroindoline Peptides on Campylobacter jejuni Growth and Biofilm Formation” (Frontiers in Microbiology, 2021)
Where a SMILES comes first, the peptide text is derived from it.

Tests used:
[1] = Solubility of the synthetic peptides; format: physicochemical; settings: DMSO and water
INT 407 cells [2] = experiment: MTT cell viability assay; format: cell-based, human; settings: INT 407 cells, 24 h
Description: (§1) The toxicity of the puroindoline peptides was assessed using INT 407 epithelial cells (ATCC CCL-6) and SRBCs, as described below. The INT 407 cells (a derivative of HeLa cells) were cultured in Minimal Essential Medium (MEM) (Gibco, Grand Island, NY, United States) supplemented with 10% fetal bovine serum (FBS) and 1 mM sodium pyruvate at 37°C in humidified condition (5% CO2).
The viability of INT 407 cells was assessed by MTT assay according to the manufacturer’s recommendations (Roche Diagnostics, Mannheim, Germany). Briefly, INT 407 cells were seeded into a 96-well plate at a density of 2.5 × 10^4 cells/well in 200 μL of growth media (MEM supplemented by 10% FBS) and incubated for 24 h at 37°C under humidified conditions. Cells were rinsed twice with MEM without FBS, and different concentrations of peptides were added into the well. Triton X-100 was added as a positive control and growth medium only was added as a negative control. After treatment, the cells were incubated for different time points (3, 6, or 24 h) at 37°C in a humidified condition. At the end of each experiment, 100 μL of culture medium was removed into a new 96-well plate, and 25 μL of MTT stock solution was added into each well. The plates were incubated for 4 h at 37°C. Then, 100 μL of the solubilizing solution was added to each well, and the plate was incubated overnight at 37°C. After cooling, the plates were read at 570 nm (OD570) on a BioTek 96-well plate reader.

[3] = system: sheep red blood cells (SRBCs); experiment: Hemolysis assay; format: cell-based; settings: ~10^8 cells/mL, 60 min, 37°C, absorbance 540 nm; 100% = 1% Triton X-100
Description: The potential toxicity of the peptides was determined using a hemolysis assay. Briefly, SRBCs (Hardy Diagnostics, Santa Monica, CA, United States) were washed three times with 1× PBS. Aliquots containing approximately 10^8 cells/mL were incubated with different concentrations of the peptides for 60 min at 37°C in a 96-well tray. The plates were then centrifuged, and the absorbance of each supernatant was measured at 540 nm. Zero hemolysis (blank) and 100% hemolysis were determined in phosphate buffer and 1% Triton X-100, respectively.

red blood cells = settings: ref Capparelli et al. (2007); cited from earlier work
Text: (§2) The cytotoxicity and hemolytic activity of PinA has been addressed in this study using human epithelial INT 407 cells and SRBCs. INT 407 cells were chosen for this study as these cells grow rapidly and easy to maintain in culture media. INT 407 cells have been used extensively in C. jejuni research for several decades ([Negretti et al., 2019]). […] The first report on the cytotoxicity of puroindolines was from [Jing et al. (2003)], where th ...

blood = blood hemolysis assay; ref Jing et al. (2003); cited from earlier work
Text: as §2

INT 407 cells [4] = experiment: Lactate dehydrogenase (LDH) cytotoxicity assay; format: cell-based, human; settings: INT 407 cells, any time point (3, 6, 24 h)
Description: as §1
The cytotoxicity of puroindoline peptides on INT 407 cells was monitored using the lactate dehydrogenase (LDH) activity assay kit (Millipore Sigma, Danvers, MA, United States) following the manufacturer’s guidelines. LDH is released from damaged cells into the medium. Briefly, INT 407 cells were seeded into a 96 well plate at a density of 2.5 × 10^4 cells/well in 200 μL growth media (MEM supplemented by 10% FBS) and incubated for 24 h at 37°C in humidified (5% CO2) conditions. The next day, cells were rinsed twice with MEM without FBS, and different concentrations of peptides were added. Cells were incubated for 3 h, 6 h or 24 h at 37°C. As a positive control, 0.1% Triton X-100 was used. Media only was used as a negative control. In the presence of Triton X-100, cells release maximum LDH. After the appropriate incubation point, the tissue culture plate was centrifuged at 2000 rpm for 5 min. […] Absorbance was recorded at 450 nm (OD450) on a BioTek 96-well plate reader.

CSCC[C@H](NC(=O)[C@@H](N)[C@@H](C)O)C(=O)N[C@@H](CCCCN)C(=O)N[C@@H](CC(=O)O)C(=O)N[C@@H](Cc1ccccc1)C(=O)N1CCC[C@H]1C(=O)N[C@H](C(=O)N[C@H](C(=O)N[C@@H](Cc1c[nH]c2ccccc12)C(=O)N1CCC[C@H]1C(=O)N[C@H](C(=O)N[C@@H](CCCCN)C(=O)N[C@@H](Cc1c[nH]c2ccccc12)C(=O)N[C@@H](Cc1c[nH]c2ccccc12)C(=O)N[C@@H](CCCCN)C(=O)NCC(=O)NCC(=O)O)[C@@H](C)O)[C@@H](C)O)C(C)C [PinB] (H-TMKDFPVTWPTKWWKGG-OH)
Solubility (in words) [1]: soluble in DMSO, an organic solvent, but not in water | Concentration reducing cell viability (MTT, OD570) (INT 407 cells [2]): > 512 µg/mL | Concentration showing hemolysis of SRBCs [3]: ≥ 256 µg/mL | Concentration up to which no hemolytic activity was displayed (red blood cells): 50 µg/mL | Concentration up to which no hemolytic activity was identified (blood): 1000 µg/mL | Concentration showing cytotoxicity (LDH release) (INT 407 cells [4]): > 512 µg/mL
